# Reference: patent US6426065B1 (Clairol Incorporated, priority 2000, dated 2002)
# Entries after “also recorded” stand apart in the source; their conditions may differ.
# Legend:
# [1] = Permanent wave evaluation of waving lotions on hair tresses (waving efficiency); conditions: for Percent Waving Efficiency / Tress Length (cm) Lt: amine 0.75M with 13.2 wt. % (0.8M) GMT, pH 7.5, 37° C. for 20 minutes; for Tress Length (cm) Lt: length of permed hair measured in the water, shorter = tighter curl
# Excerpt: The pH was adjusted using a 10 wt. % HCl solution. Tresses were rolled onto mandrels and evaluated using the permanent wave evaluation procedure that follows. Procedure for Permanent Wave Evaluation […] 1. A bundle of 16 inch long medium virgin brown hair was secured with beeswax by dipping approximately 2 inches of the root end of the bundled hair into melted wax for 5 seconds. When the wax is cool to the touch, it is shaped into a square and allowed to harden. 2. Hair is broken into smaller bundles, washed with a 10 wt. % sodium lauryl sulfate solution and then rinsed. 3. Hair is sectioned into tresses of 45 hairs and the waxed end is re-waxed to further secure the tress. The wax is allowed to dry, and a piece of tape is wrapped around it to provide a writing surface. […] 4. An 8 cm long, 1.25 cm diameter spiral rod with 25 turns is used. The waxed end of the hair is secured between the 9th and 10th turns using a rubber band. […] 5. A piece of tape, width 2.5 cm, is wrapped sideways around the bottom edge of the hair, covering the bottom 2.5 cm. A 3.4 g alligator clip is used to secure the tape. Using a piece of copper wire as a hook, a 6 oz. weight is hung from the tape at the bottom of the hair. The hair is rolled around the rod, using the weight to provide equal tension during rolling. The weight is removed after rolling, and the bottom tape is secured around the rod with a piece of Tygon tubing. 6. […] The solution completely covers the hair. The test tube is placed in a constant temperature water bath at 37° C. for 20 minutes. 7. The rod is removed and rinsed for 3 minutes under running tap water at approximately 30° C. and a flow rate of approximately 1 liter/minute. The rod is then placed into a new test tube with 10 mL of neutralizer (2 wt. % hydrogen peroxide, 0.05 wt. % polyquat-11, and phosphoric acid to pH 3.1). The rod is removed and rinsed with the 30° C. tap water for 2 minutes. 8. The tress is soaked in a bowl of 30° C. tap water for 5 minutes to allow complete oxidation. The tress is then carefully unrolled from the rod without tension, starting from the bottom and keeping the spiral configuration intact. The tape is cut off the hair using scissors while the hair is still on the rod. […] 10. […] A glass container (10×11.5×4 in) is used in which clear plastic rulers are glued along the front and back walls. A copper wire is secured across the top of the container. The rulers should be lined up to provide a way to accurately measure the hair. A copper wire hook is placed through the tape at the top of the tress and hung on the wire. […] Waving Efficiency After the procedure, the lengths of the tresses were measured in a water bath. The shorter the tress, the tighter the curl and the better the product. The curl is measured from the end of the wax to the end of the curl. [formula] where Li=initial length of tress from wax end to tip Lo=length of tress when wrapped on the rod Lt=length of permed hair from wax end to tip, measured in the water
# [2] = pKa and free amine of the alkalizer; type: physicochemical; conditions: at a pH of about 7.5
free amine [2],free amine ([2]; listed as monoethanolamine),SMILES,Percent Waving Efficiency [1],Tress Length (cm) Lt [1],"performance as alkalizer in waving lotion (in words) ([1]; low pH waving lotion, in combination with a reducing agent)"
–,–,N [Ammonia],47.8%,15.5 ± 1.2 cm,–
one,1%,NCCO [Monoethanolamine],45.4%,16.1 ± 0.5 cm,–
about 22%,–,"NC(CO)(CO)CO [Tris, tris(hydroxymethyl)amino methane]",–,15.7 ± 0.9 cm,effective alkalizer; also recorded: better results than monoethanolamine
